Reference: patent publication US10106571B2, “HCV polymerase inhibitors” (priority 2013, dated 2018)
Read-outs that look alike come from different tables or passages of the source.

Tests used:
Type in all cases: cell-based
[1] = test system: HCV mutant strains; experiment: Average over HCV mutant assays (Table 3); conditions: for EC50: Hepatitis C virus, read-out: AVG EC50; for potency increase vs sofosbuvir: mutant assays, from AVG EC50
From the text: (§1) The compound of Example 2 was further evaluated to assess the antiviral activity against genotypes 1-6 of HCV, both wild type and a number of clinically relevant mutant strains. The result of the evaluation together with the average EC50 of the genotypes and the corresponding values for sofosbuvir are summarised in Tables 2 and 3.

[2] = test system: HCV GT2a replicon; experiment: HCV GT2a replicon; conditions: Hepatitis C virus, read-out: EC50 HCV GT2a replicon
From the text: as §1

[3] = test system: HCV GT1a; experiment: HCV GT1a chimeric replicon; conditions: Hepatitis C virus, read-out: EC50 HCV GT1a*
From the text: as §1

[4] = test system: HCV GT3a; experiment: Genotype 3a transient replicon assay (Kylefjord et al.); conditions: Hepatitis C virus
From the text: (§2) The antiviral activity of commercially available sofosbuvir and the compound of Example 2 were compared in a genotype 3a transient replicon assay described in Kylefjord et al., J Virol. Methods 2014 195:156-63.
as §1

[5] = test system: genotypes 1-6 of HCV, wild type; experiment: Average over wild type HCV genotype assays (Table 2); conditions: for EC50: Hepatitis C virus, arithmetic mean +/- SEM; for potency increase vs sofosbuvir: from AVG EC50
From the text: as §1

[6] = test system: HCV GT5a; experiment: HCV GT5a chimeric replicon; conditions: Hepatitis C virus, read-out: EC50 HCV GT5a*
From the text: as §1

[7] = test system: HCV GT1b (transient); experiment: HCV GT1b (transient) replicon; conditions: Hepatitis C virus, read-out: EC50 HCV GT1b (transient)
From the text: as §1

[8] = test system: HCV GT6a; experiment: HCV GT6a chimeric replicon; conditions: Hepatitis C virus, read-out: EC50 HCV GT6a*
From the text: as §1

[9] = test system: HCV GT4a; experiment: HCV GT4a chimeric replicon; conditions: Hepatitis C virus, read-out: EC50 HCV GT4a*
From the text: as §1

[10] = test system: HCV GT1b S282T; experiment: HCV GT1b S282T mutant replicon; conditions: for EC50: Hepatitis C virus, GT1B, read-out: EC50 HCV GT1b S282T; for FC vs WT, HCV GT1b S282T: fold change of EC50 vs wild type
From the text: as §1

[11] = test system: HCV type 1b replicon (Huh-7 luc/neo, Huh-Luc); experiment: Replicon assay, Huh-Luc cells with HCV type 1b replicon (stable), luciferase readout
From the text: The compounds of formula I may be examined for activity in the inhibition of HCV RNA replication in a cellular assay aimed at identifying compounds that inhibit a HCV functional cellular replicating cell line, also known as HCV replicons. A suitable cellular assay is based on a bicistronic expression construct, as described by Lohmann et al. (1999), Science vol. 285 pp. 110-113 with modifications described by Krieger et al. (2001), Journal of Virology 75: 4614-4624, in a multi-target screening strategy.
The assay utilizes the stably transfected cell line Huh-7 luc/neo (hereafter referred to as Huh-Luc). This cell line harbors an RNA encoding a bicistronic expression construct comprising the wild type NS3-NS5B regions of HCV type 1b translated from an Internal Ribosome Entry Site (IRES) from encephalomyocarditis virus (EMCV), preceded by a reporter portion (FfL-luciferase), and a selectable marker portion (neo^R, neomycine phosphotransferase). The construct is bordered by 5′ and 3′ NTRs (non-translated regions) from HCV type 1b. Continued culture of the replicon cells in the presence of G418 (neo^R) is dependent on the replication of the HCV RNA. The stably transfected replicon cells that express HCV RNA, which replicates autonomously and to high levels, encoding inter alia luciferase, are used for screening the antiviral compounds.
The replicon cells are plated in 384 well plates in the presence of the test and control compounds which are added in various concentrations. Following an incubation of three days, HCV replication is measured by assaying luciferase activity (using standard luciferase assay substrates and reagents and a Perkin Elmer ViewLux™ ultraHTS microplate imager). Replicon cells in the control cultures have high luciferase expression in the absence of any inhibitor. The inhibitory activity of a compound on luciferase activity is monitored on the Huh-Luc cells, enabling a dose-response curve for each test compound. EC50 values are then calculated, which value represents the amount of the compound required to decrease the level of detected luciferase activity by 50%, or more specifically, the ability of the genetically linked HCV replicon RNA to replicate.

[12] = test system: HCV GT3a S282T; experiment: Genotype 3a transient replicon bearing the S282T mutation; conditions: for EC50: Hepatitis C virus; for FC vs WT, HCV GT3a* S282T: fold change of EC50 vs wild type
Description: as §2
(§3) Similarly, the L159F/L320F double mutant generated by exposure to the nucleoside mericitabine and conferring cross resistance to sofosbuvir (Tong et al 2013 J. Infect. Dis., 209 (5), 668-75) was prepared in a genotype 3a transient replicon as described above in Kylefjord et al. ibid.
as §1

[13] = test system: HCV GT2a virus; experiment: HCV GT2a virus; conditions: Hepatitis C virus, wild type, geometric mean
From the text: as §1

[14] = test system: HCV GT3a L159F/L320F; experiment: Genotype 3a transient replicon, L159F/L320F double mutant; conditions: for EC50: Hepatitis C virus; for FC vs WT, HCV GT3a* L159F/L320F: fold change of EC50 vs wild type
Description: as §3, §1

[15] = test system: HCV GT1a S282T; experiment: HCV GT1a S282T chimeric mutant replicon; conditions: for EC50: Hepatitis C virus, GT1A, read-out: EC50 HCV GT1a* S282T; for FC vs WT, HCV GT1a* S282T: fold change of EC50 vs wild type
From the text: as §1

[16] = test system: HCV GT1b L159F/L320F; experiment: HCV GT1b L159F/L320F mutant replicon; conditions: for EC50: Hepatitis C virus, GT1B, read-out: EC50 HCV GT1b L159F/L320F; for FC vs WT, HCV GT1b L159F/L320F: fold change of EC50 vs wild type
From the text: as §1

[17] = read-out: EC50 against genotype 3a
[18] = Hepatitis C virus, GT1B, Huh-7, wild type, geometric mean, read-out: EC50 HCV GT1b (stable)
[19] = GT3A, read-out: EC50 HCV GT3a* S282T
[20] = read-out: EC50, genotype 3a S282T
[21] = GT3A, read-out: EC50 HCV GT3a* L159F/L320F
[22] = read-out: EC50, genotype 3a L159F/L320F double mutant

Structure (SMILES) | EC50 [1] [nM] | potency increase vs sofosbuvir [1] | EC50 [2] [nM] | EC50 [3] [nM] | EC50 ([4]; GT3A, read-out: EC50 HCV GT3a*) [nM] | EC50 [4, 17] [nM] | EC50 [5] [nM] | potency increase vs sofosbuvir [5] | EC50 [6] [nM] | EC50 [7] [nM] | EC50 [8] [nM] | EC50 [9] [nM] | EC50 [10] [nM] | FC vs WT, HCV GT1b S282T [10] | EC50 [11, 18] [nM] | EC50 [12, 19] [nM] | EC50 [12, 20] [nM] | FC vs WT, HCV GT3a* S282T [12] | EC50 [13] [nM] | EC50 [14, 21] [nM] | other results
CC(C)OC(=O)[C@H](C)NP(=O)(OC[C@H]1O[C@@H](n2ccc(=O)[nH]c2=O)[C@@](F)(Cl)[C@@H]1O)Oc1ccccc1 (stereo partly drawn) [Example 2, (2S)-isopropyl 2-(((((2R,3R,4S,5R)-4-chloro-5-(2,4-dioxo-3,4-dihydropyrimidin-1(2H)-yl)-4-fluoro-3-hydroxytetrahydrofuran-2-yl)methoxy)(phenoxy)phosphoryl)amino)propanoate] | 171 | 3.1 | 23 | 50 | 46 | 72 | 43 | 2.7 | 44 | 44 | 58 | 59 | 298 | 6.8 | 45 | 122 | 130 | 2.7 | 17 | 62 | EC50 ([11]; Huh-Luc HCV 1b replicon, three days incubation, luciferase activity, read-out: EC50): 55 nM; EC50 [14, 22]: 62 nM; FC vs WT, HCV GT3a* L159F/L320F [14]: 1.3; EC50 [15]: 301 nM; FC vs WT, HCV GT1a* S282T [15]: 6.0; EC50 [16]: 70 nM; FC vs WT, HCV GT1b L159F/L320F [16]: 1.6
CC(C)OC(=O)[C@H](C)N[P@](=O)(OC[C@H]1O[C@@H](n2ccc(=O)[nH]c2=O)[C@](C)(F)[C@@H]1O)Oc1ccccc1 [sofosbuvir, reference compound] | 532 | 1.0 | 48 | 131 | 129 | 230 | 117 | 1.0 | 114 | 81 | 179 | 218 | 741 | 8.8 | 98 | 521 | 480 | 4.0 | 54 | 190 | EC50 [14, 22]: 190 nM; FC vs WT, HCV GT3a* L159F/L320F [14]: 1.5; EC50 [15]: 1010 nM; FC vs WT, HCV GT1a* S282T [15]: 7.7; EC50 [16]: 199 nM; FC vs WT, HCV GT1b L159F/L320F [16]: 2.5
